Test results: PMC10876507, “Chelator impact: investigating the pharmacokinetic behavior of copper-64 labeled PD-L1 radioligands” (EJNMMI Radiopharmacy and Chemistry, 2024)
Values joined by “and” are separate entries in the source; they are usually repeats but may differ in a detail not shown here. Equal values may be shown once.

Columns and labels:
[1] = n-octanol/PBS pH 7.4, shake flask
Protocol: The n-octanol/water distribution coefficients for each radioligand were determined using the shake-flask method. Each experiment was conducted in triplicate. To initiate the experiment, 30 µL of the labeling mixture was combined with 570 µL of PBS (pH 7.4) and 600 µL of n-octanol in a 1.5 mL Eppendorf-Tube. The resulting mixture was shaken at room temperature at 1500 rpm for 5 min before undergoing centrifugation. An aliquot was extracted from each phase, and radioactivity was measured on a γ-counter (ISOMED 2160). Subsequently, mean values were calculated and adjusted for background activity. The log D7.4 value was determined utilizing the equation: logD7.4=logAn-octanol/APBS

[2] = Proteolytic stability in human serum at 37 °C, radio-HPLC; format: in vitro ADME; conditions: 48 h
Protocol: For proteolytic stability studies, a solution of the radiolabeled compound was diluted with human serum in a ratio of 1:10. This mixture then underwent incubation at 37 °C while being shaken at 300 rpm. At each designated timepoint (1, 24 and 48 h), an aliquot was withdrawn and added to a detergent solution (water with 20% v/v EtOH, 5% v/v 5 mM aqueous EDTA, 0.5% v/v Triton X-100, 0.1% m/v saponin, 0.05% v/v 0.5 mM aqueous o-phenanthroline) in a ratio of 1:2 for precipitation of serum proteins. The mixture was cooled on ice for 5 min, followed by centrifugation at 12,000 g for 5 min. A minor portion of the resulting supernatant was subjected to analytical radio-HPLC (reversed-phase, Phenomenex Jupiter 300 C-18, 5 µm, 4.6 × 250 mm) with 10–95% acetonitrile (0.1% TFA) in water (0.1% TFA) in a linear gradient over 15 min, 1 mL/min, γ-detection). The assessment and graphical representations were performed using OriginPro® 9.0.

[3] = system: PC3 PD-L1 and PC3 mock cells; experiment: In vitro cell uptake in PC3 PD-L1 and PC3 mock cells; format: cell-based, human; conditions: for incubation time at which cell uptake plateaued: PC3 cells, incubation 30–240 min at or close to KD; for uptake/binding to PC3 PD-L1-positive cells vs PC3 mock cells: mixed-effects model, main effect of cell type
Protocol: Both the target-positive (PC3 PD-L1) and negative cells (PC3 mock) were seeded at ~60,000 cells per well two days prior to the experiment. At the time of experiment, cells were then incubated with the respective radioligand at or close to the KD (determined by saturation binding) in binding buffer. For each timepoint and radiotracer (30, 60, 120 and 240 min), a single plate was used (with triplicate measurements). Additional controls per plate included plastic retention, nonspecific binding [excess of unlabeled BMS-1166 (in DMSO, resulting in 0.03% v/v) for both PC3 PD-L1 and PC3 mock] and cells incubated with PBS only (protein control). Following incubation, cells were washed twice in ice-cold binding buffer, lysed in 500 μL of 0.1 M NaOH + 1% SDS and radioactivity was measured in a gamma counter (Perkin Elmer Wizard 1480) and decay corrected to a reference time (end of radiolabeling).
Protein content was determined for each timepoint and cell type by BCA assay.
Figure S27: Cell uptake (fmol/mg protein) of [64Cu]Cu-14&16 into either PC3 PD-L1 or PC3 mock cells. Uptake of both […]
effects model. Binding to PC3 mock cells is similar to that of PC3 PD-L1 and PC3 mock cells blocked with an excess of […]

PD-L1 = PD-L1 (Homo sapiens, UniProt Q9NZQ7); experiment: Saturation binding assay on human PD-L1 transduced PC3 cells (assay buffer with 2.5% BSA); design: expressed in transfected cells; host or cells: PC3 cells transduced with human PD-L1 (PC3-PD-L1); conditions: for Kd: human PD-L1 transduced PC3 cells, on ice 90 min, PBS + 2.5% w/v BSA; for Bmax: saturation binding, pmol/mg protein, PC3 PD-L1 cells
Chain of PD-L1 (Q9NZQ7 19-290): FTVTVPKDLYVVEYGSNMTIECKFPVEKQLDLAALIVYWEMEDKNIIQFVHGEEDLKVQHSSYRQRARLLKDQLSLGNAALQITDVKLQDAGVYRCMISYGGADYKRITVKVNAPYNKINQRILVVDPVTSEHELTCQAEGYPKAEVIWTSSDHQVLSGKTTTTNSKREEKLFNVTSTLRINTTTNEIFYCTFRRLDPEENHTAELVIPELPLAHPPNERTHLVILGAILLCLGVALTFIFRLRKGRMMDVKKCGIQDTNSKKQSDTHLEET

SMILES: Cc1c(COc2cc(OCc3cncc(S(C)(=O)=O)c3)c(CN[C@@H](CS(=O)(=O)O)C(=O)NCCS(=O)(=O)O)cc2Br)cccc1-c1cccc(OCc2cn(CCCN3CCN(C(=O)[C@H](CS(=O)(=O)O)NC(=O)CC[C@H](C(=O)[O-])N4CCN(CC(=O)[O-])CCN(CC(=O)[O-])CC4)CC3)nn2)c1C.[64Cu+2] [[^64Cu]Cu-14]
- Log D7.4 [1]: –3.00 ± 0.03
- intact radioligand after incubation in human serum [2]: over 95%
- incubation time at which cell uptake plateaued [3]: 60 min
- incubation time at which cell uptake plateaued ([3]; listed as [64Cu]Cu-14): ≤ 60 min
- uptake/binding to PC3 PD-L1-positive cells vs PC3 mock cells ([3]; listed as [64Cu]Cu-14): significant main effect of target expression
- Kd (PD-L1): 100 nM
- Bmax (PD-L1): 2.40 pmol/mg and 2.40 ± 0.48 pmol/mg

SMILES: Cc1c(COc2cc(OCc3cncc(S(C)(=O)=O)c3)c(CN[C@@H](CS(=O)(=O)O)C(=O)NCCS(=O)(=O)O)cc2Br)cccc1-c1cccc(OCc2cn(CCCN3CCN(C(=O)[C@H](CS(=O)(=O)O)NC(=O)CCCC(=O)NC45CNCCNCC(N)(CNCCNC4)CNCCNC5)CC3)nn2)c1C.[64Cu+2] [[^64Cu]Cu-16]
- Log D7.4 [1]: –2.79 ± 0.02
- intact radioligand after incubation in human serum [2]: 89%
- uptake/binding to PC3 PD-L1-positive cells vs PC3 mock cells ([3]; listed as [64Cu]Cu-16): significant main effect of target expression
- Kd (PD-L1): 265 ± 12.5 nM
- Bmax (PD-L1): 3.30 pmol/mg and 3.30 ± 0.46 pmol/mg
